According to patent US11174264B2, “TYK2 inhibitors and uses thereof” (Nimbus Lakshmi, Inc., priority 2019, dated 2021):

How the values were obtained:
JAK1 kinase domain = JAK1 kinase domain (Homo sapiens (Human), UniProt P23458); assay: JAK1 Radioactive Kinase Assay; type: biochemical; conditions: 10 μM compound; read-out: JAK1_IC50_RB (% INH_@_10 uM) at 10.0 uM [% INH]
Text: (§1) Similar assays were run to measure the percent inhibition at the JAK1 and JAK3 kinase domains.

Tyk2 kinase domain (JH1) = Tyk2 kinase domain (JH1) (Homo sapiens (Human), UniProt P29597); assay: Tyk2 Radioactive Kinase Assay; type: biochemical; conditions: 10 μM compound, ATP at 10 μM; read-out: TYK2_IC50_RB (% INH_@_10 uM) at 10.0 uM [% INH]
Sequence of Tyk2 kinase domain (JH1) (P29597 897-1176): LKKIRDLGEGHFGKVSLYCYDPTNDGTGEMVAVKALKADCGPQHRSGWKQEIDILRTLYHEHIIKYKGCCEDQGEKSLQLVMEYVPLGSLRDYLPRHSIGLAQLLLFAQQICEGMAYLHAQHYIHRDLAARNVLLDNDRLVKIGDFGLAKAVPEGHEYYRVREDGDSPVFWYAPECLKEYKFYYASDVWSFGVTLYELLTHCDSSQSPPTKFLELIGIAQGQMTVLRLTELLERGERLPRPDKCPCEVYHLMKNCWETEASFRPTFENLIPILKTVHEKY
Method: (§2) The Tyk2 and JAK2 radioactive kinase assay measures the percent inhibition at the Tyk2 kinase domain (JH1) and the percent inhibition at the JAK2 kinase domain (JH1). Results of the assay are expressed as percent inhibition at 10 μM.

JAK3 kinase domain = JAK3 kinase domain (Homo sapiens (Human), UniProt P52333); assay: JAK3 Radioactive Kinase Assay; type: biochemical; conditions: 10 μM compound; read-out: JAK3_IC50_RB (% INH_@_10 uM) at 10.0 uM [% INH]
Sequence of JAK3 kinase domain (P52333 822-1111): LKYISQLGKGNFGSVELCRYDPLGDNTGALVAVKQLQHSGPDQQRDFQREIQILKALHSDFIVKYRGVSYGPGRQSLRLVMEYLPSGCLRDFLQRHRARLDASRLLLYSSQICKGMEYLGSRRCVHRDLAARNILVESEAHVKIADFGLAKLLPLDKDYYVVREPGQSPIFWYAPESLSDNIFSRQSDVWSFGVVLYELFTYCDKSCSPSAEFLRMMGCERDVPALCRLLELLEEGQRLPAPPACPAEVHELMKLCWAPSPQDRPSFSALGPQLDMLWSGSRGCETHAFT
Text: as §1

JAK2 kinase domain (JH1) = JAK2 kinase domain (JH1) (Homo sapiens (Human), UniProt O60674); assay: JAK2 Radioactive Kinase Assay; type: biochemical; conditions: 10 μM compound, ATP at 10 μM; read-out: JAK2_IC50_RB (% INH_@_10 uM) at 10.0 uM [% INH]
Sequence of JAK2 kinase domain (JH1) (O60674 849-1124): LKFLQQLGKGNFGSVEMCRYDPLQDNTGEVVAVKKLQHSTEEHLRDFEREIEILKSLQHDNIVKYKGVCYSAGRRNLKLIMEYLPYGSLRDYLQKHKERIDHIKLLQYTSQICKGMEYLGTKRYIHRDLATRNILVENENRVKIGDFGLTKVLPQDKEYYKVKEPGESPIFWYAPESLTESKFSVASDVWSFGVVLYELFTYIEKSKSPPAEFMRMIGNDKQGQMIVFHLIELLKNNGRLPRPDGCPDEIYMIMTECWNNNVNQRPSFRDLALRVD
Method: as §2

[1] = target: human TYK2 (JH2domain-pseudokinase) (Homo sapiens (Human), UniProt P29597); assay: TYK2 JH2 Domain Binding Assay (KINOMEscan); conditions: read-out: hTYK2_JH2_Binding (Kd)
Sequence of human TYK2 (JH2domain-pseudokinase) (P29597 556-888): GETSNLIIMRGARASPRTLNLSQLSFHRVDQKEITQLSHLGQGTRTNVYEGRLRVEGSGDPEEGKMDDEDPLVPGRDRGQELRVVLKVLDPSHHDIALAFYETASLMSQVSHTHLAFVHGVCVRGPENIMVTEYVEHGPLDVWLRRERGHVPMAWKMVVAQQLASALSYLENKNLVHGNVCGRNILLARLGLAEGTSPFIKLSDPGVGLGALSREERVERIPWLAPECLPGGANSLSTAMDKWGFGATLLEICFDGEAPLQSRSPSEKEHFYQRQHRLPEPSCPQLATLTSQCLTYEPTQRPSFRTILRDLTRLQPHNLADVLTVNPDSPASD
Method: Binding constants for compounds of the present invention against the JH2 domain were determined by the following protocol for a KINOMEscan® assay (DiscoveRx). A fusion protein of a partial length construct of human TYK2 (JH2domain-pseudokinase) (amino acids G556 to D888 based on reference sequence NP_003322.3) and the DNA binding domain of NFkB was expressed in transiently transfected HEK293 cells. From these HEK 293 cells, extracts were prepared in M-PER extraction buffer (Pierce) in the presence of Protease Inhibitor Cocktail Complete (Roche) and Phosphatase Inhibitor Cocktail Set II (Merck) per manufacturers' instructions. The TYK2 (JH2domain-pseudokinase) fusion protein was labeled with a chimeric double-stranded DNA tag containing the NFkB binding site (5′-[…]-3′) fused to an amplicon for qPCR readout, which was added directly to the expression extract (the final concentration of DNA-tag in the binding reaction is 0.1 nM).
The liganded beads were blocked with excess biotin and washed with blocking buffer (SeaBlock (Pierce), 1% BSA, 0.05% Tween 20, 1 mM DTT) to remove unbound ligand and to reduce nonspecific binding.
Extracts were used directly in binding assays without any enzyme purification steps at a ≥10,000-fold overall stock dilution (final DNA-tagged enzyme concentration <0.1 nM). Extracts were loaded with DNA-tag and diluted into the binding reaction in a two step process. First extracts were diluted 1:100 in 1× binding buffer (PBS/0.05% Tween 20/10 mM DTT/0.1% BSA/2 μg/ml sonicated salmon sperm DNA) containing 10 nM DNA-tag. This dilution was allowed to equilibrate at room temperature for 15 minutes and then subsequently diluted 1:100 in 1× binding buffer. […] Kds were determined using an 11-point 3-fold compound dilution series with three DMSO control points. […] The compounds were then diluted directly into the assays such that the final concentration of DMSO was 0.9%. All reactions performed in polypropylene 384-well plates. Each was a final volume of 0.02 mL. Assays were incubated with shaking for 1 hour at room temperature. Then the beads were pelleted and washed with wash buffer (1×PBS, 0.05% Tween 20) to remove displaced kinase and test compound. […] The qPCR protocol consisted of a 10 minute hot start at 95° C., followed by 35 cycles of 95° C. for 15 seconds, 60° C. for 1 minute.
The compounds were then diluted directly into the assays such that the final concentration of DMSO was 0.9%. […] Kd measurements were performed in duplicate.
Binding constants (Kd values) were calculated with a standard dose-response curve using the Hill equation: […]
The Hill Slope was set to −1.

[2] = system: IL-12 induced STAT4 phophorylation mediated by Tyk2/JAK2 (heterodimeric complex); assay: IL-12 Induced pSTAT4 in Human PBMC; type: cell-based; conditions: for inhibition at 0.05 µM: Homo sapiens, PBMC, 0.05 μM compound, 1.7 ng/mL IL-12, read-out: PBMC_IL-12-pSTAT4 (% Inhibition_Average_@0.05 uM) [%]; for IC50: 1.7 ng/mL IL-12, read-out: PBMC_IL-12-pSTAT4 (IC50)
Method: Human PBMC are isolated from buffy coat and are stored frozen for assays as needed. […] 15 μl of compound or DMSO is added to the well at the desired concentrations and incubated at 1 hr at 37° C. 15 μl of stimulus (final concentration of 1.7 ng/mL IL-12) is added for 30 minutes prior to pSTAT4 and total STAT4 analysis using cell lysates prepared and analyzed by MSD reagents as per manufacturer protocol. The final DMSO concentration of compound in the assay is 0.1%.
The IL-12 Induced pSTAT4 assay evaluates the inhibition of IL-12 induced STAT4 phophorylation mediated by Tyk2/JAK2 (heterodimeric complex).

Sequence of JAK1 kinase domain (P23458 875-1153): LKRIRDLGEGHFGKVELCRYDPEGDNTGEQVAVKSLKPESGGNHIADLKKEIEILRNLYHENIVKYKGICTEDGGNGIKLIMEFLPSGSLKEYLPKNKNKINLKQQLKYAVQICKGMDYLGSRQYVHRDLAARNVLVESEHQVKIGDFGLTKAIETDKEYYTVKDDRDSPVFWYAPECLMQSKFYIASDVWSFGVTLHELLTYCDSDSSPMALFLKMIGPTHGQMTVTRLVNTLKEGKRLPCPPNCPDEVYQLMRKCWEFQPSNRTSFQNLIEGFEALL

| Structure (SMILES) | inhibition at 10 µM (JAK1 kinase domain) | inhibition at 10 µM (Tyk2 kinase domain (JH1)) | inhibition at 10 µM (JAK3 kinase domain) | inhibition at 10 µM (JAK2 kinase domain (JH1)) | Kd [1] | inhibition at 0.05 µM [2] | IC50 [2] |
| --- | --- | --- | --- | --- | --- | --- | --- |
| CNc1cc(Nc2cccn(-c3ccccn3)c2=O)nn2c(C(=O)NC3CC3)cnc12 [Compound I-4, N-cyclopropyl-8-(methylamino)-6-((2-oxo-2H-[1,2′-bipyridin]-3-yl)amino)imidazo[1,2-b]pyridazine-3-carboxamide] | < 50% | < 50% | < 50% | < 50% | < 0.2 nM | < 50% | – |
| CNc1cc(-c2cn(C(C)C)c3ncccc23)nn2c(C(=O)N[C@@H]3C[C@@H]3F)cnc12 [Compound I-5, N-((1R,2S)-2-fluorocyclopropyl)-6-(1-isopropyl-1H-pyrrolo[2,3-b]pyridin-3-yl)-8-(methylamino)imidazo[1,2-b]pyridazine-3-carboxamide] | < 50% | < 50% | < 50% | < 50% | < 0.2 nM | 70 to 90% | < 100 nM |
| CNc1cc(-c2cn(CCN3CCOCC3)c3ncccc23)nn2c(C(=O)N[C@@H]3C[C@@H]3F)cnc12 [Compound I-6, N-((1R,2S)-2-fluorocyclopropyl)-8-(methylamino)-6-(1-(2-morpholinoethyl)-1H-pyrrolo[2,3-b]pyridin-3-yl)imidazo[1,2-b]pyridazine-3-carboxamide] | < 50% | < 50% | < 50% | < 50% | < 0.2 nM | < 50% | < 100 nM |
| CNc1cc(-c2cn(C(C)C)c3ncccc23)nn2c(C(=O)N[C@H]3CC[C@H]3O)cnc12 [Compound I-10, N-((1S,2R)-2-hydroxycyclobutyl)-6-(1-isopropyl-1H-pyrrolo[2,3-b]pyridin-3-yl)-8-(methylamino)imidazo[1,2-b]pyridazine-3-carboxamide] | < 50% | < 50% | < 50% | < 50% | < 0.2 nM | 70 to 90% | < 100 nM |
| CNc1cc(-c2cn(CCN3CCOCC3)c3ncccc23)nn2c(C(=O)N[C@H]3CC[C@H]3O)cnc12 [Compound I-12, N-((1S,2R)-2-hydroxycyclobutyl)-8-(methylamino)-6-(1-(2-morpholinoethyl)-1H-pyrrolo[2,3-b]pyridin-3-yl)imidazo[1,2-b]pyridazine-3-carboxamide] | < 50% | < 50% | < 50% | < 50% | < 0.2 nM | < 50% | – |
